Laboratory results as given in US9550782B2, “Compounds and methods for treating diabetes” (Medivation Technologies, Inc., priority 2011, dated 2017).

Key:
[1] = target: T1, human recombinant adrenergic α2B receptor (Homo sapiens, UniProt P18089); assay: Radioligand binding, adrenergic α2B ([3H]Rauwolscine); conditions: 0.03 µM; for Percentage inhibition of ligand binding, Adrenergic α2B (0.03 μM): compound at 0.03 μM, repeat datapoints each shown; for Percentage inhibition of ligand binding, Adrenergic α2B: 0.03 μM compound
T1 construct: expressed in transfected cells; host or cells: CHO-K1
T1 sequence (P18089 1-450): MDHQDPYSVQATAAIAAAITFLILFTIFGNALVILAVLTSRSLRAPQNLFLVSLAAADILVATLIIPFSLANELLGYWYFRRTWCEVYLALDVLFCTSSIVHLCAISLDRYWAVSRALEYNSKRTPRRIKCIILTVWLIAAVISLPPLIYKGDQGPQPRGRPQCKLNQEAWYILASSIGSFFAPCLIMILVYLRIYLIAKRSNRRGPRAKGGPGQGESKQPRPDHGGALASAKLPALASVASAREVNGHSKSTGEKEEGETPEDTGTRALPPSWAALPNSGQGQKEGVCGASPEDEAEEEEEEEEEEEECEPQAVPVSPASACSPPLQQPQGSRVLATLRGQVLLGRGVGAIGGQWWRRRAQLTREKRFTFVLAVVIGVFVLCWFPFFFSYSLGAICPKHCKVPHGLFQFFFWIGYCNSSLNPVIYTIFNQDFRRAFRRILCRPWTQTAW
Procedure, shortened: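 Assay used CHO-K1-expressed human α2B receptor in Tris-HCl pH 7.4 buffer with MgCl2, EDTA and BSA; 60 min incubation at 25 °C.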

[2] = target: T2, human recombinant adrenergic α2A receptor (Homo sapiens, UniProt P08913); assay: Radioligand binding, adrenergic α2A ([3H]MK-912); conditions: [3H]MK-912; for Percentage inhibition of ligand binding, Adrenergic α2A (0.1 μM): compound at 0.1 μM, repeat datapoints each shown; for Percentage inhibition of ligand binding, Adrenergic α2A: 0.1 μM compound
T2 construct: expressed in transfected cells; host or cells: insect Sf9 cells
T2 sequence (P08913 1-465): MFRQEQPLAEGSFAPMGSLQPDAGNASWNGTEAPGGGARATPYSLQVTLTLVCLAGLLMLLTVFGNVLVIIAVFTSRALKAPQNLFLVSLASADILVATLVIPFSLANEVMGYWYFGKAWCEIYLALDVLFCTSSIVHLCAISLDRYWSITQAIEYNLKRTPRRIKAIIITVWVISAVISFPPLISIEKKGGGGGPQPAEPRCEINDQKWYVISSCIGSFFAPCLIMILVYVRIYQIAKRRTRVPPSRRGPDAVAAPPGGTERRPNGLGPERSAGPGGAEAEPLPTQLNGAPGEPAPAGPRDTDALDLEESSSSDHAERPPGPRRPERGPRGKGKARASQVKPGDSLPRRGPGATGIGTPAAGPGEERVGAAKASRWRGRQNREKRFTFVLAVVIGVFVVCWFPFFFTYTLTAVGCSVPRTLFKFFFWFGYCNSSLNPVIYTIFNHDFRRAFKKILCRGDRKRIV
Procedure, shortened: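 Receptor expressed in insect Sf9 cells, assayed in 50 mM Tris-HCl pH 7.4 with 12.5 mM MgCl2 and 2 mM EDTA. Compounds incubated with 1 nM [3H]MK-912 for 60 min at 25 °C; nonspecific binding defined with 10 μM WB-4101. Filter-bound radioactivity counted; values are percent inhibition of specific binding.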

[3] = target: T3, rat adrenergic α1B receptor (Rattus norvegicus, UniProt P15823); assay: Radioligand binding, adrenergic α1B ([3H]Prazosin); design: species or system Wistar Rat; conditions: for Percentage inhibition of ligand binding, Adrenergic α1B (0.1 μM): compound at 0.1 μM, repeat datapoints each shown; for Percentage inhibition of ligand binding, Adrenergic α1B: 0.1 μM compound
T3 construct: rat adrenergic α1B receptor obtained from Wistar Rat liver; from tissue; host or cells: Wistar rat liver
T3 sequence (P15823 1-515): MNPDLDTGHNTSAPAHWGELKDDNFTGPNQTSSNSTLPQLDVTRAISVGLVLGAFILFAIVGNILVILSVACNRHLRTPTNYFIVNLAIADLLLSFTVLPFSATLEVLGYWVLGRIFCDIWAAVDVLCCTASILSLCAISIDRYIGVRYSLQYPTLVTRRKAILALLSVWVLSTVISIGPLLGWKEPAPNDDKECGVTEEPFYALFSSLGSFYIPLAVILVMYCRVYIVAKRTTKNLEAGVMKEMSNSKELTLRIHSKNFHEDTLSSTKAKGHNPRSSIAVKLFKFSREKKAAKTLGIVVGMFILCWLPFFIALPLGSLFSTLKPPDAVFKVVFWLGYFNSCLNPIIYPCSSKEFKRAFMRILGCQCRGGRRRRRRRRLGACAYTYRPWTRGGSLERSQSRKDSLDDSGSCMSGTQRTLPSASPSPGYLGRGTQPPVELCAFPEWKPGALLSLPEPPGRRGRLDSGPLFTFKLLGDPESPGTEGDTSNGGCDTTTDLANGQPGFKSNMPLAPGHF
Procedure, shortened: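 Incubation ran 60 min at 25 °C in Tris-HCl buffer (50 mM, pH 7.4, 0.5 mM EDTA) with Wistar rat liver α1B receptor. 10 μM phentolamine set non-specific binding.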

## Cc1ccc2c(c1)c1c(n2CC(O)c2ccncc2)CCN2CCCCC12 (single isomer, unassigned) [47a]
[1]
  Percentage inhibition of ligand binding, Adrenergic α2B (0.03 μM): 40%
[2]; 0.1 µM
  Percentage inhibition of ligand binding, Adrenergic α2A (0.1 μM): 10%
[3]; 0.1 µM
  Percentage inhibition of ligand binding, Adrenergic α1B (0.1 μM): 58%

## Cc1ccc2c(c1)c1c(n2CC(O)c2ccncc2)CCN2CCCCC12 (single isomer, unassigned) [47b]
[1]
  Percentage inhibition of ligand binding, Adrenergic α2B (0.03 μM): 119%
[2]; 0.1 µM
  Percentage inhibition of ligand binding, Adrenergic α2A (0.1 μM): 41%
[3]; 0.1 µM
  Percentage inhibition of ligand binding, Adrenergic α1B (0.1 μM): 70%

## Cc1ccc2c(c1)c1c(n2CC(O)c2ccncc2)CCN2CCCCC12 (single isomer, unassigned) [47c]
[1]
  Percentage inhibition of ligand binding, Adrenergic α2B (0.03 μM): 53%
[2]; 0.1 µM
  Percentage inhibition of ligand binding, Adrenergic α2A (0.1 μM): 4%
[3]; 0.1 µM
  Percentage inhibition of ligand binding, Adrenergic α1B (0.1 μM): 6%

## Cc1ccc2c(c1)c1c(n2CC(O)c2ccncc2)CCN2CCCCC12 (single isomer, unassigned) [47d]
[1]
  Percentage inhibition of ligand binding, Adrenergic α2B (0.03 μM): 30%
[2]; 0.1 µM
  Percentage inhibition of ligand binding, Adrenergic α2A (0.1 μM): −3%
[3]; 0.1 µM
  Percentage inhibition of ligand binding, Adrenergic α1B (0.1 μM): 5%

## CN1CCc2c(c3cccc(Br)c3n2CC(O)c2ccncc2)C1 (single isomer, unassigned) [48a]
[1]
  Percentage inhibition of ligand binding, Adrenergic α2B (0.03 μM): 58%
[2]; 0.1 µM
  Percentage inhibition of ligand binding, Adrenergic α2A (0.1 μM): 12%
[3]; 0.1 µM
  Percentage inhibition of ligand binding, Adrenergic α1B (0.1 μM): 16%

## CN1CCc2c(c3cccc(Br)c3n2CC(O)c2ccncc2)C1 (single isomer, unassigned) [48b]
[1]
  Percentage inhibition of ligand binding, Adrenergic α2B (0.03 μM): 86%
[2]; 0.1 µM
  Percentage inhibition of ligand binding, Adrenergic α2A (0.1 μM): 17%
[3]; 0.1 µM
  Percentage inhibition of ligand binding, Adrenergic α1B (0.1 μM): 14%

## Cc1ccc2c(c1)c1c(n2CC(C)(O)c2ccc[n+]([O-])c2)CCN(C)C1 (single isomer, unassigned) [56a]
[1]
  Percentage inhibition of ligand binding, Adrenergic α2B (0.03 μM): 20%
[2]; 0.1 µM
  Percentage inhibition of ligand binding, Adrenergic α2A (0.1 μM): 11%
[3]; 0.1 µM
  Percentage inhibition of ligand binding, Adrenergic α1B (0.1 μM): 1%

## Cc1ccc2c(c1)c1c(n2CC(C)(O)c2ccc[n+]([O-])c2)CCN(C)C1 (single isomer, unassigned) [56b]
[1]
  Percentage inhibition of ligand binding, Adrenergic α2B (0.03 μM): 28%
[2]; 0.1 µM
  Percentage inhibition of ligand binding, Adrenergic α2A (0.1 μM): 17%
[3]; 0.1 µM
  Percentage inhibition of ligand binding, Adrenergic α1B (0.1 μM): 6%

## CN1CCc2c(c3cc(C(F)(F)F)ccc3n2CC(O)c2cccnc2)C1 (single isomer, unassigned) [59a]
[1]
  Percentage inhibition of ligand binding, Adrenergic α2B (0.03 μM): 15%
[2]; 0.1 µM
  Percentage inhibition of ligand binding, Adrenergic α2A (0.1 μM): 18%
[3]; 0.1 µM
  Percentage inhibition of ligand binding, Adrenergic α1B (0.1 μM): 11%

## CN1CCc2c(c3cc(C(F)(F)F)ccc3n2CC(O)c2cccnc2)C1 (single isomer, unassigned) [59b]
[1]
  Percentage inhibition of ligand binding, Adrenergic α2B (0.03 μM): 31%
[2]; 0.1 µM
  Percentage inhibition of ligand binding, Adrenergic α2A (0.1 μM): 12%
[3]; 0.1 µM
  Percentage inhibition of ligand binding, Adrenergic α1B (0.1 μM): 7%

## Cc1ccc2c(c1)c1c(n2CC(O)c2cc[n+]([O-])cc2)CCN(C)C1 (single isomer, unassigned) [69a]
[1]
  Percentage inhibition of ligand binding, Adrenergic α2B (0.03 μM): 10%
[2]; 0.1 µM
  Percentage inhibition of ligand binding, Adrenergic α2A (0.1 μM): 11%
[3]; 0.1 µM
  Percentage inhibition of ligand binding, Adrenergic α1B (0.1 μM): 4%

## Cc1ccc2c(c1)c1c(n2CC(O)c2cc[n+]([O-])cc2)CCN(C)C1 (single isomer, unassigned) [69b]
[1]
  Percentage inhibition of ligand binding, Adrenergic α2B (0.03 μM): 19%
[2]; 0.1 µM
  Percentage inhibition of ligand binding, Adrenergic α2A (0.1 μM): 7%
[3]; 0.1 µM
  Percentage inhibition of ligand binding, Adrenergic α1B (0.1 μM): 8%

## Cc1ccc2c(c1)c1c(n2CC(O)c2ccncc2)CC2CCCN2C1 (single isomer, unassigned) [76a]
[1]
  Percentage inhibition of ligand binding, Adrenergic α2B (0.03 μM): 92%
[2]; 0.1 µM
  Percentage inhibition of ligand binding, Adrenergic α2A (0.1 μM): 21%
[3]; 0.1 µM
  Percentage inhibition of ligand binding, Adrenergic α1B (0.1 μM): 78%

## Cc1ccc2c(c1)c1c(n2CC(O)c2ccncc2)CC2CCCN2C1 (single isomer, unassigned) [76b]
[1]
  Percentage inhibition of ligand binding, Adrenergic α2B (0.03 μM): 34%
[2]; 0.1 µM
  Percentage inhibition of ligand binding, Adrenergic α2A (0.1 μM): 18%
[3]; 0.1 µM
  Percentage inhibition of ligand binding, Adrenergic α1B (0.1 μM): 71%

## Cc1ccc2c(c1)c1c(n2CC(O)c2ccncc2)CC2CCCN2C1 (single isomer, unassigned) [76c]
[1]
  Percentage inhibition of ligand binding, Adrenergic α2B (0.03 μM): 35%
[2]; 0.1 µM
  Percentage inhibition of ligand binding, Adrenergic α2A (0.1 μM): 5%
[3]; 0.1 µM
  Percentage inhibition of ligand binding, Adrenergic α1B (0.1 μM): 33%

## Cc1ccc2c(c1)c1c(n2CC(O)c2ccncc2)CC2CCCN2C1 (single isomer, unassigned) [76d]
[1]
  Percentage inhibition of ligand binding, Adrenergic α2B (0.03 μM): 91%
[2]; 0.1 µM
  Percentage inhibition of ligand binding, Adrenergic α2A (0.1 μM): 40%
[3]; 0.1 µM
  Percentage inhibition of ligand binding, Adrenergic α1B (0.1 μM): 51%

## Cc1ccc2c(c1)c1c(n2CC(O)c2ccncc2Cl)CCN(C)C1 (single isomer, unassigned) [135a]
[1]
  Percentage inhibition of ligand binding, Adrenergic α2B: 42%
[2]; 0.1 µM
  Percentage inhibition of ligand binding, Adrenergic α2A: 4%
[3]; 0.1 µM
  Percentage inhibition of ligand binding, Adrenergic α1B: 60%

## Cc1ccc2c(c1)c1c(n2CC(O)c2ccncc2Cl)CCN(C)C1 (single isomer, unassigned) [135b]
[1]
  Percentage inhibition of ligand binding, Adrenergic α2B: 68%
[2]; 0.1 µM
  Percentage inhibition of ligand binding, Adrenergic α2A: 22%
[3]; 0.1 µM
  Percentage inhibition of ligand binding, Adrenergic α1B: 30%

## Cc1cnc2c(c1)c1c(n2CC(O)c2ccc(F)cc2)CCN(C)C1 (single isomer, unassigned) [136a]
[1]
  Percentage inhibition of ligand binding, Adrenergic α2B: 34%
[2]; 0.1 µM
  Percentage inhibition of ligand binding, Adrenergic α2A: 16%
[3]
  Percentage inhibition of ligand binding, Adrenergic α1B: 54%

## Cc1ccc(CCn2c3c(c4cc(Cl)cnc42)C2CCCN2CC3)cn1 (single isomer, unassigned) [137b]
[1]
  Percentage inhibition of ligand binding, Adrenergic α2B: 30%
[2]
  Percentage inhibition of ligand binding, Adrenergic α2A: 6%
[3]; 0.1 µM
  Percentage inhibition of ligand binding, Adrenergic α1B: 23%

## Cc1cnc2c(c1)c1c(n2CC(C)(O)c2ccc(F)cc2)CCN(C)C1 (single isomer, unassigned) [138a]
[1]
  Percentage inhibition of ligand binding, Adrenergic α2B: 63%
[2]; 0.1 µM
  Percentage inhibition of ligand binding, Adrenergic α2A: −8%
[3]; 0.1 µM
  Percentage inhibition of ligand binding, Adrenergic α1B: 61%

## Cc1cnc2c(c1)c1c(n2CC(C)(O)c2ccc(F)cc2)CCN(C)C1 (single isomer, unassigned) [138b]
[1]
  Percentage inhibition of ligand binding, Adrenergic α2B: 25%
[2]; 0.1 µM
  Percentage inhibition of ligand binding, Adrenergic α2A: 4%
[3]; 0.1 µM
  Percentage inhibition of ligand binding, Adrenergic α1B: 22%
